Data reported in patent publication US9034861B2, “MEK inhibitors useful in the treatment of diseases” (Allomek Therapeutics LLC, priority 2009, dated 2015).
Read-outs that look alike come from different tables or passages of the source. Values belong to the molecule of their own block, whether it stands above or below them.

How the values were obtained:
HT29 cells = test: Proliferation / cell survival assay (CellTiterGlo, 72 hour); type: cell-based
Procedure: (§1) In vitro studies of variety of tumor cells lines with prevalent mutations in RAS/RAF genes were performed for anti-proliferative activity (functional assay). This was compared with wild type cell line for selectivity. MEK kinase assay was performed in the presence and in the absence of ATP to define its allosteric inhibitory mode of action; Effect on ERK phosphorylation was studied to establish its cellular mechanism of action.
(§2) Colo205, Caki-1, HepG2, HCT116 and HT29 cells were obtained from American Type Culture Collection. Colo205, Caki-1, HepG2 cells were grown in RPMI 1640 medium supplemented with L-glutamine (Invitrogen) and 10% Fetal Bovine Serum (Hyclone) at 37° C. in a humidified, 5% CO2 incubator. HCT116 and HT29 cells were grown in DMEM medium supplemented with L-glutamine (Invitrogen) and 10% Fetal Bovine Serum (Hyclone) at 37° C. in a humidified, 5% CO2 incubator.
(§3) Proliferation assay was done by plating 2,000 cells/well in 100 μL of DMEM/10% FBS or RPMI/10% media in a 96-well plate and incubated overnight at 37° C. in a humidified, 5% CO2 incubator. Media was replaced with fresh 100 μL of fresh RPMI/10% FBS media or DMEM/10% FBS media containing various concentrations of the compounds. Compounds were added at 3-fold dilutions, concentrations ranging from 3.3 μM to 4.5 nM. After 72 hour incubation with the compounds at 37° C. in a humidified, 5% CO2 incubator, cell viability was measured in a luminometer after the addition of 100 μL/well CellTiterGlo reagent (Promega). IC50s were calculated using SoftMax software.

Colo205 cells = test: as above; type: cell-based; details: Homo sapiens, COLO 205; Colo205, BRAF mutation; average of two experiments; read-out: IC50, in vitro cell survival / proliferation
Procedure: as §1, §2, §3

HepG2 cells = test: as above; type: cell-based; details: Homo sapiens; HepG2, N-Ras mutation; average of two experiments; read-out: IC50, in vitro cell survival / proliferation
Procedure: as §1, §2, §3

Caki-1 cells = test: as above; type: cell-based; details: Homo sapiens; Caki (Caki-1), WT; average of two experiments; read-out: IC50, in vitro cell survival / proliferation
Procedure: as §1, §2, §3

HCT116 cells = test: as above; type: cell-based; details: Homo sapiens, HCT-116; HCT116, K-Ras mutation; average of two experiments; read-out: IC50, in vitro cell survival / proliferation
Procedure: as §1, §2, §3

[1] = target: T1, recombinant full-length human GST-MEK1 (Homo sapiens, UniProt Q02750); test: MEK Enzyme Inhibitory Assay (ADP-Glo); type: biochemical
T1 construct: Purified recombinant full-length human GST-MEK1; GST; purchased Cell Signaling Technology, Inc (Beverly, Mass., USA)
T1 sequence (Q02750 whole entry): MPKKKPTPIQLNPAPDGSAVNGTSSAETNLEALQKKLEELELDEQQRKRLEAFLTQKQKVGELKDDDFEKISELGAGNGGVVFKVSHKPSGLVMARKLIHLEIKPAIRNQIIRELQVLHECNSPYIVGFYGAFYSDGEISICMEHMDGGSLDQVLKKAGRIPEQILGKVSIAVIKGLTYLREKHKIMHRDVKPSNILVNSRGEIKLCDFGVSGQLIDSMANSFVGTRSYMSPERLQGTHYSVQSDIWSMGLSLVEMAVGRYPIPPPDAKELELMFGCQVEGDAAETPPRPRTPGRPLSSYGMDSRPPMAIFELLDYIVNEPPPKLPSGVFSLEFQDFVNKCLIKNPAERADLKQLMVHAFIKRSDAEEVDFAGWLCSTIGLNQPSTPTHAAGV
Procedure: Materials and preparation of reagents: Purified recombinant full-length human GST-MEK1 was purchased from Cell Signaling Technology, Inc (Beverly, Mass., USA). MAP kinase substrate Erk1/Erk2 peptide was purchased from Enzo Life Sciences (Plymouth Meeting, Pa., USA).
Determination of enzymatic activity: Compounds were diluted three-fold in dimethylsulfoxide (DMSO) ranging from 1 mM to 1.37 μM concentration. A typical 20-microliter assay contained 80 ng MEK1, 4 μg Erk1/Erk2 peptide, 100 μM or 1 mM ATP, 1 μM to 1.37 nM test compound in 1× assay buffer containing 5 mM MOPS, pH 7.2, 2.5 mM β-glycerophosphate, 1 mM EGTA, 0.4 mM EDTA, 5 mM MgCl2, 0.05 mM DTT. Enzyme reaction was incubated at room temperature for 90 minutes. At the end of kinase reaction, 20 μL of ADP-Glo reagent (Promega, Madison, Wis., USA) was added and incubated at room temperature for 40 minutes. Forty μL of kinase detection reagent (Promega) was added and incubated at room temperature for 1 h. Chemiluminescence was read and IC50s calculated using SoftMax software.

[2] = Homo sapiens, HT-29, HT29 proliferation, class symbols, read-out: HT29 IC50
[3] = Homo sapiens, HT-29, HT29, BRAF mutation, average of two experiments, read-out: IC50, in vitro cell survival / proliferation

SMILES: COc1cc(F)c(NS(=O)(=O)C2(CC(O)CO)CC2)c(Nc2ccc(I)cc2F)c1 (centres unmarked) [Example 17]
IC50 (HT29 cells; [2]): < 100 nM

SMILES: O=S1(=O)Nc2c(cc(F)c(F)c2Nc2ccc(I)cc2F)OCC(O)C(O)CC12CC2 (single isomer, unassigned) [Example 8a]
IC50 (HT29 cells; HT29 proliferation, class symbols, read-out: HT29 IC50): < 100 nM

SMILES: O=S1(=O)Nc2c(cc(F)c(F)c2Nc2ccc(I)cc2F)OCC(O)C(O)CC12CC2 (single isomer, unassigned) [Example 8b]
IC50 (HT29 cells; [2]): 100 to 500 nM

SMILES: O=S1(=O)Nc2c(cc(F)c(F)c2Nc2ccc(I)cc2F)OCCCCC12CC2 [Example 19]
IC50 (HT29 cells; [2]): > 500 nM

SMILES: O=S1(=O)Nc2c(Nc3ccc(I)cc3F)cc(F)cc2OCC(O)C(O)CC12CC2 (centres unmarked) [Example 13]
IC50 (HT29 cells; [2]): < 100 nM

SMILES: O=S1(=O)Nc2c(cc(F)c(F)c2Nc2ccc(Br)cc2F)OCC(O)C(O)CC12CC2 (centres unmarked) [Example 9]
IC50 (HT29 cells; [2]): > 500 nM

SMILES: COc1cc(F)c(F)c(Nc2ccc(I)cc2F)c1NS(=O)(=O)C1(C[C@H](O)CO)CC1 [RDEA 119, reference compound]
IC50 (Colo205 cells): 20 nM
IC50 (HT29 cells; [3]): 20 nM
IC50 (HepG2 cells): 17 nM
IC50 (Caki-1 cells): > 1000 nM
IC50 (HCT116 cells): 461 nM

SMILES: O=S1(=O)Nc2c(cc(F)c(F)c2Nc2ccc(I)cc2)OCC(O)C(O)CC12CC2 (centres unmarked) [Example 10]
IC50 (HT29 cells; [2]): 100 to 500 nM

SMILES: O=S1(=O)Nc2c(cc(F)c(F)c2Nc2ccc(I)cc2Cl)OCC(O)C(O)CC12CC2 (centres unmarked) [Example 11]
IC50 (HT29 cells; [2]): 100 to 500 nM

SMILES: O=S1(=O)Nc2c(cc(F)c(F)c2Nc2ccc(I)cc2F)OC/C=C/CC12CC2 [Example 1]
IC50 (HT29 cells; [2]): 100 to 500 nM

SMILES: COc1cc(F)c(NS(=O)(=O)C2(CC(O)CO)CC2)c(Nc2ccc(I)cc2F)c1F (centres unmarked) [Example 15, N-(3,6-difluoro-2-(2-fluoro-4-iodophenylamino)-4-methoxyphenyl)-1-(2,3-dihydroxypropyl)cyclopropane-1-sulfonamide]
IC50 (HT29 cells; [2]): 100 to 500 nM

SMILES: COc1cc(F)c(NS(=O)(=O)C2(CC(O)CO)CC2)c(Nc2ccc(Br)cc2F)c1F (centres unmarked) [Example 16]
IC50 (HT29 cells; [2]): > 500 nM

IC50 [1]: 21 nM
SMILES: O=S1(=O)Nc2c(cc(F)c(F)c2Nc2ccc(I)cc2F)OCC(O)C(O)CC12CC2 (racemic) [Example 8]
IC50 (Colo205 cells): 17 nM
IC50 (HT29 cells; [3]): 21 nM
IC50 (HT29 cells; [2]): < 100 nM
IC50 (HepG2 cells): 15 nM
IC50 (Caki-1 cells): > 1000 nM
IC50 (HCT116 cells): 544 nM
